Test results: ChEMBL document CHEMBL2407063, “Synthesis and in vitro cellular uptake of 11C-labeled 5-aminolevulinic acid derivative to estimate the induced cellular accumulation of protoporphyrin IX” (Bioorg Med Chem Lett, 2013); call rule not given here

Tests used:
[1] = Protein binding in mouse serum by ultrafiltration method; type: ADME, cell-free; conditions: read-out: PB (converted)
[2] = test system: ASPC1; test: Cellular uptake in human AsPC1 cells at 15 MBq after 10 mins by gamma counting in presence of PEPT1/2 substrate glycylsarcosine; type: ADME, cell-based; conditions: aspc1, 10 min
[3] = test system: ASPC1; test: Cellular uptake in human AsPC1 cells at 15 MBq after 10 mins by gamma counting in presence of aminolevulinic acid; type: ADME, cell-based; conditions: aspc1, 10 min
[4] = test system: ASPC1; test: Cellular uptake in human AsPC1 cells at 15 MBq after 10 mins by gamma counting in presence of beta-transporter substrate GABA; type: ADME, cell-based; conditions: aspc1, 10 min
[5] = test system: ASPC1; test: Cellular uptake in human AsPC1 cells at 15 MBq by gamma counting; type: ADME, cell-based; conditions: TDE = time-dependent effect
[6] = biological target: T1, Delta-aminolevulinic acid dehydratase (Homo sapiens, UniProt P13716); test: Inhibition of ALAD (unknown origin)
T1 sequence (P13716 whole entry): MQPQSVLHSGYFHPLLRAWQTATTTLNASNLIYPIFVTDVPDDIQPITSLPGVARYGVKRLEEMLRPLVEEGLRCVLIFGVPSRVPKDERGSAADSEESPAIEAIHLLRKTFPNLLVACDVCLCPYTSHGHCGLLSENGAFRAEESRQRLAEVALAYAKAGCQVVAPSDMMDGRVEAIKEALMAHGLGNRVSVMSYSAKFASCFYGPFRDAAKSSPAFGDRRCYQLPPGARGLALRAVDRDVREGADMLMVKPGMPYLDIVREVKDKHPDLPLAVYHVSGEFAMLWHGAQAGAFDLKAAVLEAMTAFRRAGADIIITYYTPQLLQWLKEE

[7] = […] in mouse serum after 60 mins by HPLC analysis; type: ADME, cell-free

In the case of [11CH3]C(N)C(=O)CCC(=O)O (racemic), the fraction unbound [1] is reported as 0.973, the Drug uptake [2] is reported as “Not Active” and the Drug uptake [3] is reported as “Not Active”. For the same molecule, the Drug uptake [4] was “Not Active”, the Drug uptake [5] was “tde” and the Ki [6] was 0.2 µM. For the same molecule, the fraction unbound at 1 h [7] was 0.974.
